According to patent publication US4372948A, “Derivative of saccharide and physiologically active agent containing the same” (Kureha Kagaku Kogyo Kabushiki Kaisha, priority 1980, dated 1983):

Experiments:
in vivo = settings: mouse, in vivo, po, mice, 7 days observation, read-out: LD50, acute oral toxicity
level of blood sugar = test: Anti-hyperglycemia activity (reduction of blood sugar level); type: in vivo, rat (Wistar, streptozotocin); settings: oral, 300 mg/kg
Description: A group of Wistar rats to which at first streptozotocin was interperitoneally administered at a rate of 60 mg/kg and of which the positivity of glycosuria was confirmed after a week of the administration and to which regular insulin was further administered and of which the reduction of levels of glucose in urine and blood was once confirmed, however, of which hyperglycemia and hyperglycosuria were again confirmed after a few days was chosen and used as model animals of glycosuria in the following test. After orally administering each of the present compounds to the model animals at a dose of 300 mg/kg body weight, as a solution or dispersion in distilled water, the blood was collected two times, respectively after 3 and 6 hours of the administration.

blood pressure = test: Anti-hypertension activity (reduction of blood pressure); type: in vivo, rat (spontaneous hypertension); settings: oral, 300 mg/kg
Description: Rats of spontaneous hypertension were orally administered with each of the present compounds as a solution or dispersion in distilled water at a dose rate of 300 mg/kg body weight. After 3 and 6 hours of the administration, the blood pressure of each rat was determined, and the difference between the above-determined value and the value just before the administeration was used as the index of the activity of reducing the blood pressure of the compound.

Sarcoma-180 = test: Anti-tumour activity against Sarcoma-180; type: in vivo, mouse (ICR-JCL); settings: Mus musculus, Sarcoma-180, po, 600 h, 10 times every other day, tumour weight on 25th day, read-out: Antitumour activity, inhibiting rate (I.R.)
Description: Sarcoma-180 was transplanted into the axillary part of ICR-JCL mice at a rate of 1×10^6 cells/animal, and after 24 hours of transplantation, each of the present compounds as a solution or dispersion in sterilized physiological saline solution was orally administered to each of the transplanted mice 10 times every other day at a dose of 500 mg/kg/time. On 25th day of the transplantation, tumour node(s) were extirpated from all the mice to determine the weight of the tumour nodes.
Antitumour activity (activity of inhibiting the proliferation of the transplanted sarcoma) of each of the present compounds was derived by the following formula and shown in Table 6:
Antitumour activity (Inhibiting rate, I.R.)=(1-T/C)×100(%).
T represents the total weight of tumour nodes of the group of mice transplanted and administered with the present compound, and
C represents the total weight of tumour nodes of the group of mice transplanted, however, not administered with any agents.

total cholesterol = test: Anti-hyperlipemia activity, total cholesterol in blood; type: in vivo, rabbit (Japanese white male); settings: oral, 300 mg/kg once; for Reduction of cholesterol level after 3 hrs.: negative = raising
Description: (§1) Japanese white male rabbits were fed for 3 months with a solid diet containing 1% of cholesterol taken ad lib, and after confirming the raised lipid content of the serum of the rabbits, they were utilized as model animals suffering from experimental arteriosclerosis. Each of the present compounds was administered orally as a solution or dispersion in distilled water to the experimental animals of each group at a dose rate of 300 mg/kg once, and blood samples were taken at a predetermined time interval from the auricular vein of each animal. The content of cholesterol in the blood specimen was traced as the time passed by, with an enzymatic method, and the content of beta-lipoprotein in the same blood specimen was traced with a colorimetry. Each value in Table 7 is the difference between the level just before administration and the level after 3 or 6 hours of the administration.

beta-lipoprotein = test: Anti-hyperlipemia activity, beta-lipoprotein in blood; type: in vivo, rabbit (Japanese white male); settings: oral, 300 mg/kg once
Description: as §1

carrageenin edema = test: Anti-Carrageenin edema activity; type: in vivo, rat; settings: Rattus norvegicus, po, 1000 mg/kg once, read-out: I.R. against carrageenin edema
Description: After orally administering each of the present compounds forcibly to each group of rats, composed of 10 animals, as a solution or dispersion in distilled water at a dose of 1000 mg/kg once, 0.1 ml of an aqueous dispersion of 1% carrageenin in aqueous physiological saline solution was injected into the foot pad of the right hind leg of the administered animal following Van Arman et al. (1963). Thereafter, the thickness of the foot pad was measured at a time interval to find the rate of inhibiting of the swelling of the foot pad according to the following formula:
(§2) Rate of inhibition (I.R.) (%)=(1-T/C)×100
T means the average volume of the foot pad of the animals administered with one of the present compounds and carrageenin, and
C means that of the animal not administered with the present compound, however, administered with carrageenin.

cotton pellet granuloma = test: Anti-granuloma activity (cotton pellet); type: in vivo, rat; settings: Rattus norvegicus, po, 192 h, 7 days, read-out: I.R. against cotton pellet edema
Description: Following the method of Winter et al. (1963), each two cotton wool pellets, each weighing 30±1 mg, were implanted into the back of each rats of groups of rats, each group consisting of 6 animals, at the positions of mutually symmetrical concerning the median line of the rat. To these groups of the thus operated rats, the present compounds were respectively administered orally and forcibly as a solution or dispersion in distilled water for 7 continuous days, once a day at a dose of 1000 mg/kg/day. On 8th day of the implantation, the granuloma was extirpated and the dry weight of the granuloma was measured, the rate of inhibiting the proliferation of granuloma being obtained as in (5-1) being shown in Table 8.

exudation = test: Anti-exudation activity (air pouch, croton oil); type: in vivo, rat; settings: Rattus norvegicus, po, 144 h, 5 days, read-out: I.R. against exudation
Description: Following the method of Baris et al. (1965), air was injected subcutaneously into the back of groups of rats, each group consisting of 6 animals to make an air pouch, and 0.5 ml of sesame oil containing 1% by weight of croton oil was injected into the air pouch. Each of the present compounds was orally administered forcibly to each of the groups of rats as a solution or dispersion in distilled water at a dose rate of 1000 mg/kg/day for continued five days. The amount of liquid exudated into the air pouch was measured on 6th day of the operation. The rate of inhibiting the exudation of the liquid was obtained by the same manner as in (5-2) and the results are shown also in Table 8.

[1] = tested on: pseudo-escaping reaction to tail pressure; test: Analgetic activity against mechanical stimulation of pressure; type: in vivo, mouse (ICR female); settings: oral, 1000 mg/kg
acetic acid writhing = test: Analgetic activity against chemical stimulation of acetic acid (writhing); type: in vivo, mouse (ICR female); settings: Mus musculus, po, 30 min before 0.6% acetic acid, read-out: I.R. of writhing
Excerpt: as §2
T represents the average number of writhing of the group of mice administered with the present compound and injected with acetic acid, and C represents the average number of writhing of the group of mice only injected with acetic acid (control).

[2] = tested on: pyrexia (Saccharomyces cerevisiae); test: Anti-pyrexia activity (yeast-induced); type: in vivo; settings: Rattus norvegicus, oral, read-out: Rate of inhibiting pyrexia (I.R.)
Description: Following the method of Winter et al. (1961), an aqueous dispersion of 20% by weight of Saccharomyces cerevisiae was subcutaneously injected into groups of rats, each group consisting of 6 animals, and after 10-hour fasting, 1000 mg/kg of each of the present compounds was orally administered to the rat as a solution of dispersion in distilled water, and then the rectal temperature of the rat was measured at a predetermined interval of time to find the lowest temperature.
The anti-pyrexia activity of each compound was obtained from the following formula: […]
Anti-pyrexia activity represented by the rate of inhibition (I.R.)
C2 represents the average rectal temperature of negative control (non-treatment), not injected with the yeast and not administered with the present compound,
C1 represents the average temperature of positive control, injected with the yeast and not administered with the compound and T represents the temperature of tested animals, injected with the yeast and administered with the present compound.

Compound	LD50 at 168 h (in vivo) [mg/kg]	Reduced level of blood sugar after 3 hrs. (level of blood sugar) [mg/dL]	Reduced level of blood sugar after 6 hrs. (level of blood sugar) [mg/dL]	Reduced level of blood pressure after 3 hrs. (blood pressure) [mm Hg]	Reduced level of blood pressure after 6 hrs. (blood pressure) [mm Hg]	inhibition in vivo at 500 mg/kg (Sarcoma-180) [%]	Reduction of cholesterol level after 3 hrs. (total cholesterol) [mg/dL]	Reduction of cholesterol level after 6 hrs. (total cholesterol) [mg/dL]	Reduction of beta-lipoprotein level after 3 hrs. (beta-lipoprotein) [mg/dL]	Reduction of beta-lipoprotein level after 6 hrs. (beta-lipoprotein) [mg/dL]	inhibition in vivo at 1000 mg/kg (carrageenin edema) [%]	inhibition in vivo at 1000 mg/kg/day (cotton pellet granuloma) [%]	inhibition in vivo at 1000 mg/kg/day (exudation) [%]	Pseudo-escapting reaction pressure [1] [mmHg]	Pseudo-escapting reaction time [1] [s]	inhibition in vivo at 1000 mg/kg (acetic acid writhing) [%]	inhibition in vivo at 1000 mg/kg [2] [%]
C[C@@H]1OC(Nc2ccc(C(N)=O)cc2)[C@H](O)[C@H](O)[C@H]1O (stereo partly drawn) [Compound 5, p-aminobenzoic acid amide-N-L-rhamnoside]	10500	91	128	17	18	39	-1	32	134	148	4.2	16.8	12.4	90	41	52	59
C[C@@H]1OC(Nc2ccccc2C(=O)Oc2ccccc2)[C@H](O)[C@H](O)[C@H]1O (stereo partly drawn) [Compound 6, phenyl o-aminobenzoate-N-L-rhamnoside]	> 15000	121	146	22	23	44	4	57	152	155	7.6	20.5	19	98	43	37	69
O=C(Oc1ccccc1)c1cccc(NC2O[C@H](CO)[C@@H](O)[C@H](O)[C@@H]2O)c1 (stereo partly drawn) [Compound 7, phenyl m-aminobenzoate-N-D-mannoside]	14800	144	159	24	26	49	-2	62	141	150	5.9	25.3	7.5	95	44	46	31
O=C(Oc1ccccc1)c1ccc(NC2OC[C@@H](O)[C@H](O)[C@H]2O)cc1 (stereo partly drawn) [Compound 8, phenyl p-aminobenzoate-N-D-xyloside]	13500	106	140	18	20	53	6	46	128	144	21.4	5.6	15.7	80	39	20	47
O=C(Oc1ccccc1)c1ccc(NC2O[C@H](CO)[C@@H](O[C@@H]3O[C@H](CO)[C@@H](O)[C@H](O)[C@H]3O)[C@H](O)[C@H]2O)cc1 (stereo partly shown) [Compound 9, phenyl p-aminobenzoate-N-cellobioside]	> 15000	85	121	25	28	40	-1	40	126	136	3.7	7.9	18.8	86	38	28	32
